Measurements: PubChem BioAssay (NCI)
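96-well plates; 48 h exposure; 5 concentrations. Endpoints by linear interpolation between flanking doses. Not reached: highest tested concentration assigned. GI50 = concentration required for 50% inhibition of growth. TGI is the concentration that stops growth completely.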

Experiments:
Experiment in all cases: DTP human tumour cell line panel, 48 h
[1] = test system: A498 renal
[2] = test system: A549 NSCLC
[3] = test system: HCT-15 colon
[4] = test system: HL-60(TB) leukemia
[5] = test system: HT29 colon
[6] = test system: OVCAR-5 ovarian
[7] = test system: OVCAR-8 ovarian
[8] = test system: RXF 393 renal
[9] = test system: SF-268 CNS
[10] = test system: SK-MEL-2 melanoma
[11] = test system: U251 CNS
[12] = test system: UO-31 renal

Row | Structure (SMILES) | TGI [1] [µM] | TGI [2] [µM] | TGI [3] [µM] | TGI [4] [µM] | TGI [5] [µM] | TGI [6] [µM] | TGI [7] [µM] | TGI [8] [µM] | TGI [9] [µM] | TGI [10] [µM] | TGI [11] [µM] | TGI [12] [µM] | GI50 [1] [µM] | GI50 [3] [µM] | GI50 [4] [µM] | GI50 [6] [µM] | GI50 [8] [µM] | GI50 [10] [µM] | GI50 [12] [µM]
1 | CC(Oc1ccc(Cl)cc1Cl)C(=O)NN1C(=O)CC(=O)NC1=S (centres undefined) | > 100 | > 100 | > 100 | 91.8 | > 100 | > 100 | > 100 | > 100 | > 100 | > 100 | > 100 | > 100 |  |  |  |  |  |  | 
2 | CC(C)(C)c1cc(C(C)(C)C)c(SSc2c(C(C)(C)C)cc(C(C)(C)C)c(O)c2O)c(O)c1O | 27.5 | 24 | 20.7 | 14.6 | 31.5 | 31.3 | 47.7 | 47.2 | 24.7 | 28.4 | 22.2 | 18.6 |  |  |  |  |  |  | 
3 | COc1cc(C2c3cc4c(cc3[C@@H](Nc3cnc5ccccc5c3)C3COC(=O)[C@H]23)OCO4)cc(OC)c1O (some centres undefined) | 1.38 | 0.789 | 1.31 | 0.377 | 4.2 | 2.25 | 5 | 3 | 3.9 | 3.58 | 0.6 | 3.3 |  |  |  |  |  |  | 
4 | O=C(Cn1c(C(=O)/C=C/c2ccc(Cl)c(Cl)c2)nc2ccccc21)c1ccccc1 | 67.4 | 59.8 | 91.6 | 36.7 | 45.5 | 50.2 |  | 57.2 | > 100 | 47.1 | > 100 | 56 |  |  |  |  |  |  | 
5 | COc1ccc2[nH]c(=O)cc(C)c2c1[N+](=O)[O-] | > 100 | > 100 | > 100 | > 100 | > 100 | > 100 | > 100 |  | > 100 | > 100 | > 100 | > 100 |  |  |  |  |  |  | 
6 | COc1ccc(C(=O)c2[nH]c(Nc3cc(C)ccn3)c(C(=S)Nc3ccccc3)c2N)cc1 | 33.1 | > 100 | 55.9 | 64 | 39.4 | 74.1 | 52.4 | 38.4 | 68.2 | 24.2 | 36.4 | 57.4 |  |  |  |  |  |  | 
7 | CC1(c2cccc(C(F)(F)F)c2)CC(c2cccc(C(F)(F)F)c2)=C(C#N)C(=C(C#N)C#N)N1 (centres undefined) | 32.7 | 39.9 | 33.1 | 35.1 | 36.2 | 32.8 | 40.2 | 31.4 | 31.1 | 41.1 | 35 | 33.4 |  |  |  |  |  |  | 
8 | CC1=NN(c2ccccc2Cl)C2(C1)C(Cl)C(=O)N2c1nc2ccccc2s1 (centres undefined) | > 100 | > 100 | > 100 | 60.6 | > 100 | > 100 | > 100 | > 100 | > 100 | > 100 | 76.5 | > 100 |  |  |  |  |  |  | 
9 | Nc1nc(N)c2ncn(Cc3ccccc3CO)c2n1 | > 100 | > 100 | > 100 | > 100 | > 100 | > 100 | > 100 |  | > 100 | > 100 | > 100 | > 100 |  |  |  |  |  |  | 
10 | COC(=O)/C=C1\C(=O)Nc2ccc(Br)cc21 | 11.6 | 12.3 | 2.81 | 3.92 | 3.68 | 3.17 | 5.78 | 3.27 | 13.8 | 1.77 | 4.73 | 5.55 |  |  |  |  |  |  | 
11 | COc1cnc2oc3ccc(O)cc3c2c1-c1ccccc1 | > 100 | > 100 | > 100 | > 100 | > 100 | 68.2 | > 100 | > 100 | > 100 | > 100 | > 100 | > 100 |  |  |  |  |  |  | 
12 | O=c1c2cc([N+](=O)[O-])ccc2[nH]n1Cc1ccccc1Cl | > 100 | > 100 | > 100 | > 100 | > 100 | > 100 | > 100 | > 100 | > 100 |  | > 100 | > 100 |  |  |  |  |  |  | 
13 | CS(C)(=O)=Nn1c(=O)n2n(c1=O)[C@H]1CC[C@@H]2C1 | > 100 | > 100 | > 100 | > 100 | > 100 | > 100 | > 100 | > 100 | > 100 | > 100 | > 100 | > 100 |  |  |  |  |  |  | 
14 | COc1cc2c(/C=C3/C(=O)Nc4cc(C)c(O)cc43)c(Cl)[nH]c2cc1C | 43.2 | 20.2 | 13.5 |  | 5.31 | 15.6 | 15.7 | 7.1 | 31.9 | 23.9 | 15.7 | 17.7 |  |  |  |  |  |  | 
15 | O=C1C=CC2(C=C1)O[C@H](CCc1ccccc1)[C@@H](CCc1ccccc1)O2 | > 100 | > 100 | > 100 | > 100 | > 100 | > 100 | > 100 | > 100 | > 100 | > 100 | 38.2 | > 100 |  |  |  |  |  |  | 
16 | C=CCn1c(C)nc2cc(Nc3nc(N4CCCC4)nc4nc[nH]c34)ccc21 | > 100 |  | > 100 | > 100 |  | > 100 |  | > 100 |  | > 100 |  | > 100 | > 100 | > 100 | > 100 | > 100 | > 100 | > 100 | > 100
17 | COc1ccc(/C=C2\CC3C4CC=C5C[C@@H](N6CCCC6)CC[C@]5(C)C4CC[C@]3(C)[C@H]2O)cc1OC (some centres undefined) | 17 | 17.6 | 14.2 | 42.4 | 15.3 | 19 | 23.8 | 25.2 | 22.4 | 14.3 | 15.8 | 18.5 |  |  |  |  |  |  | 
18 | Cc1c2cnccc2c(C)c2c1c1ccccc1n2CCCCCCCl | > 50 | > 50 | > 50 | 40.6 | > 50 | > 50 | > 50 | > 50 | > 50 | > 50 | > 50 | > 50 |  |  |  |  |  |  | 
19 | Nc1nc2cc(COc3ccc(C(=O)O)cc3)ccc2nc1-c1ccccc1 |  | > 10 | > 10 | > 10 | > 10 | > 10 |  | > 10 | > 10 | > 10 | > 10 | > 10 |  |  |  |  |  |  | 
20 | COc1ccc(C)cc1NC(=S)N/N=C/c1ccco1 | > 100 | > 100 | > 100 | 86.2 | > 100 | > 100 | > 100 | > 100 | > 100 | 39.9 |  | > 100 |  |  |  |  |  |  | 
21 | O=C1Nc2ccccc2C1(O)Cc1ccccn1 (centres undefined) | > 100 | > 100 | > 100 | > 100 | > 100 | > 100 | > 100 | > 100 | > 100 | > 100 | > 100 | > 100 |  |  |  |  |  |  | 
22 | O=C1Sc2sc(=S)sc2SC1c1ccccc1 (centres undefined) | > 100 | > 100 | 36.8 | > 31.6 | > 100 | > 100 | > 100 | 76.6 | > 100 | > 100 | > 100 | > 86.7 |  |  |  |  |  |  | 
23 | C=C1C(=O)OC2/C=C(CO)/C=C\C3OC3(C)CC(OC(=O)/C(C)=C/COC(C)=O)C12 (centres undefined) | 20.6 | 28.5 | 4.27 | 1.48 | 7.39 | 26.9 | 7 | 4.12 | 15.4 | 7.88 | 14.5 | 17.9 |  |  |  |  |  |  | 
24 | COc1cc2c(cc1OCCCN1CCOCC1)N=C[C@@H]1CCCN1C2=O | 30.1 | > 100 | 74.2 | 29.6 | 47.7 | 59.9 | 98.3 | 8.13 | > 100 | > 100 | > 100 | > 100 |  |  |  |  |  |  | 
25 | COc1cccc(/C=N/[N+](C)(C)C)c1O | > 10 | > 10 | > 10 | > 10 | > 10 | > 10 | > 10 | > 10 | > 10 | > 10 | > 10 | > 10 |  |  |  |  |  |  | 
